For 14 compounds, IC50 results are on record in patent publication US11267808B2, “Benzamide derivatives as PPAR-gamma modulators” (MEDIBIOFARMA, S.L., priority 2017, dated 2022).

Sequence of Human PPAR-gamma (P37231 whole entry): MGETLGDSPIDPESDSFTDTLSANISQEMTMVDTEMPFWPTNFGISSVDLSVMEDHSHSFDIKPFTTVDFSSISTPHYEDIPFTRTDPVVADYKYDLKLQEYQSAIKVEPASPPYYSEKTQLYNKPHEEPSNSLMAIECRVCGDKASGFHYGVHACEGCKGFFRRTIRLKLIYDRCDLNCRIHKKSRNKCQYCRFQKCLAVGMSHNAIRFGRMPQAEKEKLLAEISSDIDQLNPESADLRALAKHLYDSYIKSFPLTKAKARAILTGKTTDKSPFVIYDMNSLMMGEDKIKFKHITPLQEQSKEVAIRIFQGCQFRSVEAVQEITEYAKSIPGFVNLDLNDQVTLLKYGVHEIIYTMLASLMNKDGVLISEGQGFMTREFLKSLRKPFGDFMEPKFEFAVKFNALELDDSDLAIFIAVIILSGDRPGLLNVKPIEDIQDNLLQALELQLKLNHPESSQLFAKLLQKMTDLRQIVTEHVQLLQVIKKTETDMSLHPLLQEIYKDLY

This experiment deals with Human PPAR-gamma (Homo sapiens (Human), UniProt P37231). In words: Human PPAR-gamma (h) (agonist radioligand) binding assay. Particulars: inhibition of radioligand specific binding; class ranges defined in μM. The method, then:
The compounds of the present invention were assayed for binding to the Human PPAR-gamma (h) (agonist radioligand) Assay and were tested at several concentrations for IC50 determination.
Compound binding was calculated as a % inhibition of the binding of a radioactively labelled ligand specific for each target, as described in (FERRY, Gilles, et al. Binding of prostaglandins to human PPARγ: tool assessment and new natural ligands. European journal of pharmacology, 2001, vol. 417, no 1, p. 77-89).
The IC50 values (concentration causing a half-maximal inhibition of control specific binding) was determined by non-linear regression analysis of the competition curves generated with mean replicate values using Hill equation curve fitting
where Y=specific binding, A=left asymptote of the curve, D=right asymptote of the curve, C=compound concentration, C50=IC50, and nH=slope factor. This analysis was performed using software developed at EUROFINS Cerep Company (Hill software) and validated by comparison with data generated by the commercial software SigmaPlot® 4.0 for Windows® (© 1997 by SPSS Inc.).
For `N#Cc1ccc(Cl)c(C(=O)Nc2ccnc(-c3ccccc3)c2)c1` [Example 1, 2-chloro-5-cyano-N-(2-phenylpyridin-4-yl)benzamide], the half-maximal inhibitory concentration (IC50) (in general, the concentration that gives 50% inhibition) was less than 0.2 µM. `N#Cc1ccc(Cl)c(C(=O)Nc2ccc(-c3ccccc3)nc2)c1` [Example 2, 2-chloro-5-cyano-N-(6-phenylpyridin-3-yl)benzamide] displayed a concentration for half-maximal inhibition (IC50) of less than 0.2 µM.

Turning to `N#Cc1ccc(Cl)c(C(=O)Nc2ccnc(-c3ccc(F)cc3)c2)c1` [Example 3, 2-chloro-5-cyano-N-(2-(4-fluorophenyl)pyridin-4-yl)benzamide], the half-inhibitory concentration (IC50) was in the range of 0.2 to 1 µM. To `N#Cc1ccc(Cl)c(C(=O)Nc2ccc(-c3ccc(F)cc3)nc2)c1` [Example 4, 2-chloro-5-cyano-N-(6-(4-fluorophenyl)pyridin-3-yl)benzamide] belongs less than 0.2 µM; to `N#Cc1ccc(Cl)c(C(=O)Nc2ccc(-c3cccnc3)nc2)c1` [Example 5, N-([2,3′-bipyridin]-5-yl)-2-chloro-5-cyanobenzamide], less than 0.2 µM; to `N#Cc1ccc(Cl)c(C(=O)Nc2ccnc(-c3cccnc3)c2)c1` [Example 6, N-([2,3′-bipyridin]-4-yl)-2-chloro-5-cyanobenzamide], 1 to 50 µM. The compound `N#Cc1ccc(Cl)c(C(=O)Nc2ccc(-c3ccncc3)nc2)c1` [Example 7, N-([2,4′-bipyridin]-5-yl)-2-chloro-5-cyanobenzamide] showed an IC50 of 1 to 50 µM. For `N#Cc1ccc(F)c(C(=O)Nc2ccc(-c3cccnc3)nc2)c1` [Example 9, N-([2,3′-bipyridin]-5-yl)-5-cyano-2-fluorobenzamide], the concentration for half-maximal inhibition (IC50) is less than 0.2 µM. To `N#Cc1ccc(F)c(C(=O)Nc2ccc(-c3ccc(F)cc3)nc2)c1` [Example 10, 5-cyano-2-fluoro-N-(6-(4-fluorophenyl)pyridin-3-yl)benzamide] belongs less than 0.2 µM; to `N#Cc1ccc(Cl)c(C(=O)Nc2ccc(-c3ccccn3)nc2)c1` [Example 13, N-([2,2′-bipyridin]-5-yl)-2-chloro-5-cyanobenzamide], less than 0.2 µM.

On to `CN1CCN(c2ccc(NC(=O)c3cc(C#N)ccc3Cl)cn2)CC1` [Example 14, 2-chloro-5-cyano-N-(6-(4-methylpiperazin-1-yl)pyridin-3-yl)benzamide], for which the IC50 fell in the range of 1 to 50 µM. On to `CN1CCN(c2cc(NC(=O)c3cc(C#N)ccc3Cl)ccn2)CC1` [Example 15, 2-chloro-5-cyano-N-(2-(4-methylpiperazin-1-yl)pyridin-4-yl)benzamide], for which the half-inhibitory concentration (IC50) is not below 50 µM.

Consider `N#Cc1ccc(Cl)c(C(=O)Nc2ccnc(N3CCOCC3)c2)c1` [Example 16, 2-chloro-5-cyano-N-(2-morpholinopyridin-4-yl)benzamide], for which the IC50 was in the range of 1 to 50 µM.

Compound `N#Cc1ccc(Cl)c(C(=O)Nc2ccc(N3CCOCC3)nc2)c1` [Example 17, 2-chloro-5-cyano-N-(6-morpholinopyridin-3-yl)benzamide] displayed a half-inhibitory concentration (IC50) of 1 to 50 µM.
